What was measured:
Test in all cases: Example B1 herbicidal action, post-emergence, 96-cell seed trays, climatic chamber
Format in all cases: in vivo
[1] = tested on: Amaranthus retroflexus (AMARE); settings: Application post-emergence, 1000 mg/l spray equivalent to 1000 g/ha, evaluated after 9 days
How it was run: (§1)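 Plants at 8–9 days post-sowing (23/17 °C, 13 h light, 50–60% humidity) sprayed post-emergence with 1000 mg/l active ingredient in 10% DMSO, equivalent to 1000 g/ha. Grown on at 24/19 °C, watered twice daily; damage scored after 9 days (0 = none, 100 = total).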

Solanum nigrum (SOLNI) = settings: Application post-emergence, 1000 mg/l spray equivalent to 1000 g/ha, evaluated after 9 days (100=total damage to plant, 0=no damage to plant)
How it was run: as §1

Stellaria media (STEME) = settings: Application post-emergence, 1000 mg/l spray equivalent to 1000 g/ha, evaluated after 9 days (100=total damage to plant, 0=no damage to plant)
How it was run: as §1

[2] = tested on: Nasturtium officinale (NAAOF); design: scale not given here; settings: Application post-emergence, 1000 mg/l spray equivalent to 1000 g/ha, evaluated after 9 days (100=total damage to plant, 0=no damage to plant)
How it was run: as §1

| SMILES | damage to plant, Amaranthus retroflexus (AMARE) [1] | damage to plant, Solanum nigrum (SOLNI) (Solanum nigrum (SOLNI)) | damage to plant, Stellaria media (STEME) (Stellaria media (STEME)) | damage to plant, Nasturtium officinale (NAAOF) [2] |
| --- | --- | --- | --- | --- |
| C=CCCCCCCCCC(=O)Oc1c(-c2c(F)ccc(F)c2Cl)c(=O)n(C)c2nccnc12 [Compound C101] | 7 | 4 | 2 | 3 |
| O=c1[nH]c2nccnc2c(O)c1-c1ccc(F)cc1Br [Compound A18] | 6 | 6 | 4 | 9 |
| CCn1c(=O)c(-c2ccccc2OC(F)(F)F)c(OC(C)=O)c2nccnc21 [Compound C27] | 7 | 6 | 5 | 7 |
| COCCn1c(=O)c(-c2ccc(Cl)cc2Cl)c(OC(C)=O)c2nccnc21 [Compound C9] | 0 | 3 | 2 | 2 |
| CC(C)C(=O)Oc1c(-c2c(F)ccc(F)c2Cl)c(=O)n(C)c2ncc(Cl)nc12 [Compound C83] | 0 | 1 | 0 | 0 |
| CCn1c(=O)c(-c2ccccc2OC(F)(F)F)c(OC(=O)C(C)(C)C)c2nccnc21 [Compound C26] | 0 | 0 | 2 | 0 |
| Cc1cc(C)c(-c2c(OC(=O)C(C)C)c3nccnc3n(C)c2=O)c(C)c1 [Compound C75] | 3 | 7 | 7 | 6 |
| Cn1c(=O)c(-c2c(F)ccc(F)c2Cl)c(OC(=O)CC(C)(C)C)c2nccnc21 [Compound C53] | 7 | 3 | 5 | 7 |
| O=c1[nH]c2nccnc2c(O)c1-c1ccc(F)cc1C(F)(F)F [Compound A17] | 8 | 5 | 5 | 7 |
| Cn1c(=O)c(-c2c(Cl)cc(C(F)(F)F)cc2Cl)c(OC(=O)C(C)(C)C)c2nccnc21 [Compound C120] | 5 | 7 | 7 | 6 |
| O=c1[nH]c2nccnc2c(O)c1-c1ccccc1F [Compound A15] | 0 | 0 | 0 | 2 |
| CCC(=O)Oc1c(-c2ccc(F)cc2Cl)c(=O)n(C)c2nccnc12 [Compound C44] | 8 | 2 | 6 | 4 |
| Cn1c(=O)c(-c2ccc(Cl)cc2Cl)c(OC(=O)C(C)(C)C)c2nccnc21 [Compound C61] | 8 | 2 | 8 | 8 |
| CCn1c(=O)c(-c2c(F)ccc(F)c2F)c(OC(=O)C(C)C)c2nccnc21 [Compound C57] | 5 | 2 | 7 | 6 |
| CC(C)n1c(=O)c(-c2ccccc2OC(F)(F)F)c(OC(=O)C(C)(C)C)c2nccnc21 [Compound C23] | 0 | 4 | 0 | 0 |
| C/C=C/C(=O)Oc1c(-c2c(Cl)cccc2Cl)c(=O)n(C)c2nccnc12 [Compound C35] | 2 | 0 | 7 | 7 |
| Cc1ccc(Cl)c(-c2c(O)c3nccnc3[nH]c2=O)c1F [Compound A33] | 4 | 3 | 3 | 2 |
| Cn1c(=O)c(-c2cccc(C(F)(F)F)c2Cl)c(OC(=O)C(C)(C)C)c2nccnc21 [Compound C123] | 4 | 6 | 6 | 4 |

— patent US8133847B2, “Pyrido[2,3-B]pyrazine derivatives useful as herbicidal compounds” (Syngenta Limited, priority 2006, dated 2012)
